Laboratory results published in patent US20090203877A1, “X-RAY-DENSE CONJUGATE” (Eberhard-Karls-Universitaet Tuebingen Universitaetsklinkum, priority 2006, published 2009).
Entries after “also recorded” stand apart in the source; their conditions may differ.

How the values were obtained:
[1] = test system: human malignant U373 glioma cells; assay: Uptake/staining of cells by FITC-labelled conjugates (fluorescence microscopy, CLSM, FACS, semi-thin sections); type: cell-based; conditions: 260 μM
Protocol: Fluorescence was measured in a Becton Dickinson FACSCalibur. […] The investigations were performed in triplicate.
(§1) For CT and FACS human U373 glioma cells were grown under the same conditions in 75 cm^2 culture flasks (Corning Costar, Bodenheim, Germany) (70% confluency). Accutase™ (PAA laboratories, Pasching, Austria) was added to achieve detachment of the cells which were harvested and subsequently aliquoted into Eppendorf tubes (6×10^6 cells per tube). As in the investigations performed by fluorescence microscopy, the cells in the first tube served as a control (PBS only). The cells in the other tubes were incubated with 260 μM Ultravist, 260 μM TIBA in PBS and 26 μM, 260 μM and 2.6 mM conjugates 1-4 in PBS. After a 20 minute incubation period at 37° C. in an atmosphere of 5% CO2, the cells were washed three times in PBS and centrifuged at 800 rpm for 5 minutes.
The FACS analysis was performed as described under 1.4.
(§2) The human malignant U373 and LN18 glioma cells were cultivated in 75 cm^2 culture flasks (Corning Costar) (70% confluency) under the conditions as described under 1.4, detached from the flask bottom with Accutase™ (PAA Laboratories) and in the following distributed on Eppendorf tubes (Eppendorf, Hamburg, Germany) (6×10^6 per tube). The cells in the first tube serve as a control (only PBS buffer only). The cells in the other ten tubes were each incubated with benzoic acid (BA), monoiodobenzoic acid (MIBA) or diiodobenzoic acid (DIBA) alone (260 μM), conjugate 3 alone (260 μM), conjugate 3 plus either BA, MIBA or DIBA (260 μM), respectively, and the conjugates 9, 10, and 11 alone. (260 μM).
After an incubation of 20 minutes at 37° C./5% CO2 the cells were washed three times with PBS buffer and centrifuged at 800 rpm (rounds per minute) for 5 minutes. The fluorescence was measured in Becton Dickinson FACSCalibur as described under 1.4. The computer tomography was performed as described under 1.5.1. The examinations were repeated two times.
(§3) For the CT and FACS examinations human LN-18 and U373 glioma cells were cultivated in 75 cm^2 culture flasks (Corning Costar) (70% confluency) (conditions as described under 1.4). Accutase™ (PAA Laboratories) was added to detach the cells from the bottom of the culture flasks. The cells were collected and then distributed on Eppendorf tubes (6×10^6 cells per tube). The cells in the first two tubes serve as a control (in each case only PBS, LN18 and U373 glioma cells, native). The cells in the other tubes (in each case LN18 and U373 glioma cells) were incubated with a 260 μM or 2.6 mM solution of the conjugate 12 for 20 minutes at 37° C. and 5% CO2 and in the following washed for three times with PBS buffer and centrifuged for 5 minutes with 800 rpm (rounds per minute). For a small amount of the cells it was tested by the MMT test (see 1.4) how many of the cells were still viable. The computer tomography of the cell centrifuges was performed with the Somatom Sensation 16 (Siemens).
(§4) The FACS analysis was performed as described under 1.4. The assay was repeated two times.
For the CT and FACS examinations human LN18 and U373 glioma cells were cultivated in 75 cm^2 culture flasks (70% confluency) (conditions as described under section 1). Accutase™ (PAA Laboratories) was added to detach the cell from the culture bottom. The cells were collected and then distributed on Eppendorf-tubes (6×10^6 cells per tube). […] The next three tubes were used for the coincubation of the cells either with trichlorobenzoic acid (TCBA), trifluorobenzoic acid (TFBA) or tribromophenyl Isocyanat (TBPI) and the NLS-FITC-conjugate 3 (260 μM). As control cells were used which were only either incubated with CIBA, FIBA, TBPI (in each case 260 μM in PBS) or with PBS-buffer (native control) alone. […] The computer tomography and FACS analysis of the cell centrifuges were performed as described in 1.5.1 or 1.4, respectively for three times. […]

[2] = test system: human malignant LN18 glioma cells; assay: Uptake/staining of cells by FITC-labelled conjugates (CLSM, FACS, semi-thin sections); type: cell-based; conditions: 260 μM; for nuclear staining of cells (CLSM), in words: 20 min; for heavily stained cells: FIGS. 8, 13-16; for staining of nucleoli in semi-thin sections (about 0.4 μm): after incubation
Protocol: as §2
(§5) After an incubation of 20 minutes at 37° C./5% CO2 the cells were washed three times with PBS buffer and centrifuged at 800 rpm (rounds per minute) for 5 minutes. The fluorescence was measured in Becton Dickinson FACSCalibur as described under 1.4. The computer tomography was performed as described under 1.5.1. The examinations were repeated two times. […]
as §4
For the CT and FACS examinations human LN18 and U373 glioma cells were cultivated in 75 cm^2 culture flasks (70% confluency) (conditions as described under section 1). Accutase™ (PAA Laboratories) was added to detach the cell from the culture bottom. The cells were collected and then distributed on Eppendorf-tubes (6×10^6 cells per tube). […] The next three tubes were used for the coincubation of the cells either with trichlorobenzoic acid (TCBA), trifluorobenzoic acid (TFBA) or tribromophenyl Isocyanat (TBPI) and the NLS-FITC-conjugate 3 (260 μM). As control cells were used which were only either incubated with CIBA, FIBA, TBPI (in each case 260 μM in PBS) or with PBS-buffer (native control) alone. […] The computer tomography and FACS analysis of the cell centrifuges were performed as described in 1.5.1 or 1.4, respectively for three times.
All measurements were performed on living cells.
All measurements were performed on living cells in triplicates.
A part of the cells which were stained for the FACS analysis, was fixed by paraformaldehyl with 2% Agar, dehydrogenized in ethanol, embedded in Lowicryl K4M (Polysciences, Eppelheim, Germany) and according to the information of the manufacturer UV-polymerised at room temperature. Semi-thin sections (about 0.4 μm) were cut and evaluated by means of fluorescence microscopy.

[3] = test system: human malignant LN18 glioma cells; assay: Cell viability / cell death (annexin-V-Alexa 568 binding, propidium iodide, FACS scatter morphology); type: cell-based; conditions: 260 μM, 20 min, substance alone
Protocol: All measurements were performed on living, non-fixed cells. […] All measurements were performed on living cells. […] All measurements were performed on living cells in triplicates. […] All measurements were performed on living cells.

[4] = test system: human malignant U373 glioma cells; assay: Computer tomography, signal density of cell pellets; type: cell-based; conditions: 260 μM, 20 min
Protocol: as §1
The inner ear spiral CT protocol consisted of: tube voltage 120 KV, effective mAs 550, time of imaging TI: 1.5, SL 0.75/0.75/4.5, FOV: 50 0/52, kernel: U70, window: intervertebral disc.
3D-images were obtained using InSpace Software (Syngo CT 2006G) (Siemens AG, Erlangen, Germany).
as §5
An Orbita CT spiral was used: tube voltage 120 KV, effective mAs 550, time of imaging TI: 1.5, SL 0.75/0.75/4.5, FOV: 50 0/52, GT: 0.0, kernel: U70, window: intervertebral disc. 3D images were made with the InSpace Software (Syngo CT 2006G) (Siemens AG, Erlangen, Germany). […]

[5] = test system: human malignant LN18 glioma cells; assay: Computer tomography, signal density of cell centrifugates; type: cell-based; conditions: 260 μM, 20 min
Protocol: as §3, with “After an incubation of 20 minutes at 37° C./5% CO2 the cells were washed three times with PBS buffer and centrifuged at 800 rpm (rounds per minute) for 5 minutes. The fluorescence was measured in Becton Dickinson FACSCalibur as described under 1.4. The computer tomography was performed as described under 1.5.1. The examinations were repeated two times. For the” for “For the”, “16 (Siemens). An Orbita CT spiral was used: tube voltage 120 KV, effective mAs 550, time of imaging TI: 1.5, SL 0.75/0.75/4.5, FOV: 50 0/52, GT: 0.0, kernel: U70, window: intervertebral disc. 3D images were made with the InSpace Software (Syngo CT 2006G) (Siemens AG, Erlangen, Germany). […] Accutase™ (PAA Laboratories) was added to detach the cell from the culture bottom. The cells were collected and then distributed on Eppendorf-tubes (6×10^6 cells per tube).” for “16 (Siemens).”

[6] = test system: human vascular endothelial cells; conditions: traditional contrast media; cited from earlier work

| Compound | cells strongly stained by FITC, FACS histogram [1] | cells strongly stained by FITC, FACS histogram [2] | nuclear staining of cells (CLSM), in words ([2]; listed as K15) | heavily stained cells [2] [%] | staining of nucleoli in semi-thin sections (about 0.4 μm) [2] | cell death / vitality (annexin-V-Alexa 568, propidium iodide) [3] | cell death / vitality (annexin-V-Alexa 568, propidium iodide) ([3]; listed as K15) | CT signal density of cell pellets [4] | CT signal density of cell centrifugates [5] | concentration at which apoptosis is induced [6] [mg iodine per millilitre] | nuclear staining of cells (CLSM), in words [2] |
| --- | --- | --- | --- | --- | --- | --- | --- | --- | --- | --- | --- |
| PKKKRKVK(FITC)GGK(TBPI) (PKKKRKVKGGK; FITC, GGK linker, TBPI) [conjugate 15, FITC-labelled tribromophenyl isocyanate-NLS-conjugate] | clear increase of the cells which are strongly stained by FITC | clear increase of the cells which are strongly stained by FITC | strong staining of the nucleus in almost all cells; also recorded: nuclei of the LN18 glioma cells accumulate | 78 | strongly stained; also recorded: accumulate in the nucleoli | signs of cell death | Alexa-annexin binds to the surface of the cells | did not result in an increase of the signal density | did not result in an increase of the signal density | – | – |
| COCC(=O)Nc1c(I)c(C(=O)NCC(O)CO)c(I)c(C(=O)N(C)CC(O)CO)c1I (stereo not drawn) [Ultravist, Iopromid, reference compound] | – | – | – | – | – | – | – | only low signal density values; also recorded: did not result in any increase in signal density | – | 250 | – |
| CC(=O)Nc1c(I)c(NC(C)=O)c(I)c(C(=O)O)c1I [diatrizoate] | – | – | – | – | – | – | – | – | – | 250 | – |
| PKKKRKVK(FITC)GGK(TFBA) (PKKKRKVKGGK; FITC, GGK linker, TFBA) [conjugate 13, FITC-labelled NLS with trifluorobenzoic acid] | shift of the histogram peak to the right | shift of the histogram peak to the right | – | 78 | accumulate in the nucleoli | no longer vital; also recorded: signs of cell death | – | did not result in an increase of the signal density | did not result in an increase of the signal density | – | stains a large number of cells in the nucleus |
| PKKKRKVK(FITC)GGK(TCBA) (PKKKRKVKGGK; FITC, GGK linker, TCBA) [conjugate 14, FITC-labelled NLS with trichlorobenzoic acid] | shift of the histogram peak to the right | shift of the histogram peak to the right | – | 78 | accumulate in the nucleoli | dead and signs of cell death | – | did not result in an increase of the signal density | did not result in an increase of the signal density | – | almost all nuclei are stained |
| CNC(=O)c1c(I)c(C(=O)NCC(=O)Nc2c(I)c(C(=O)O)c(I)c(C(=O)NCCO)c2I)c(I)c(N(C)C(C)=O)c1I [ioxaglate] | – | – | – | – | – | – | – | – | – | 250 | – |
| CN(C(=O)CC(=O)N(C)c1c(I)c(C(=O)NC(CO)C(O)CO)c(I)c(C(=O)NC(CO)C(O)CO)c1I)c1c(I)c(C(=O)NC(CO)C(O)CO)c(I)c(C(=O)NC(CO)C(O)CO)c1I (stereo not drawn) [iotrolan] | – | – | – | – | – | – | – | – | – | 250 | – |
